{
  "source": "paper PMC12176268",
  "about": "“Structural Features and Photophysical and Antiproliferative Properties of Me2N‑pbt-Cycloplatinated Complexes with Picolinate Ligands” (Inorganic Chemistry, 2025)",
  "key": {"[1]": {"molecular_target": "T1, bovine serum albumin (BSA) (Bos taurus, UniProt P02769)", "T1 sequence (P02769 25-607)": "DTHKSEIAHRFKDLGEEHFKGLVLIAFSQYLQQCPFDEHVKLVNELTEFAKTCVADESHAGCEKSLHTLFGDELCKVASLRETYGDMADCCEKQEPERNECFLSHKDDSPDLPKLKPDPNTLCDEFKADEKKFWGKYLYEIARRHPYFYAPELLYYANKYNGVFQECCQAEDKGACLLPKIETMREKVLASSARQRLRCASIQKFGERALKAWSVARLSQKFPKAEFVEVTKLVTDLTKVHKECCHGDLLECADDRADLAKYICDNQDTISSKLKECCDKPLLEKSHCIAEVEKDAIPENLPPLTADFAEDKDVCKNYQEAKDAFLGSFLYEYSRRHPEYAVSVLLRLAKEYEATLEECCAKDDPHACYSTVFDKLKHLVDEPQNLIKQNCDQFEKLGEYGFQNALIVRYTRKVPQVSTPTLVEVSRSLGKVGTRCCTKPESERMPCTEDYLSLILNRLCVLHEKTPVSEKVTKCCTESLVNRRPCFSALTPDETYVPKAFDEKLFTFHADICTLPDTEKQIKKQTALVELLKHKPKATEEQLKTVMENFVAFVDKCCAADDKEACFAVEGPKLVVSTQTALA", "test": "Quenching of intrinsic BSA fluorescence (Stern–Volmer, binding constant)", "settings": "5 μM BSA, 20 mM PB pH 7.4, 1% DMSO, 1 h room temperature", "experimental": "In order to further characterize the interactions between complex 3 and BSA, we monitored the evolution of the intrinsic emission band of BSA upon excitation at 290 nm, attributed to the Trp213 residue located in the hydrophobic domain IIA, in the presence of an increasing concentration of complex 3. Briefly, the emission spectra of solutions containing 5 μM BSA dissolved in 20 mM PB buffer (pH 7.4) containing 1% DMSO incubated for 1 h at room temperature with concentrations of 3 ranging from 1 to 100 μM (Figure S33A) were recorded. […] The kinetics of the intermolecular quenching processes follow the Stern–Volmer eq : 2 F0/F=1+Ksv[3] where F 0 is the fluorescence intensity of pure BSA, F is the fluorescence intensity after the addition of 3, and K SV is the Stern–Volmer dynamic quenching efficiency (Figure S33B). K SV (eq ) can be expressed as the product of the quenching rate k q and the average lifetime of the fluorophore τ0 in the excited state, which is typically 10^–8 s. 3 KSV=kqτ0\nThe linear Stern–Volmer plot can be indicative of either a dynamic or static quenching mechanism.\nIt is further possible to determine the number of binding sites (n) and the binding constant (Kb) by plotting log((F0-F)/F) vs log([3]) (Figure S33C) according to eq . 4 log(F0−F/F)=logKb+nlog[3] […]"}, "[2]": {"molecular_target": "T1, bovine serum albumin (BSA)", "test": "Emission and UV–vis titration of complex 3 with BSA", "assay_type": "binding", "settings": "10 μM complex, BSA 0–50 μM, H2O/DMSO 95/5, λexc 450 nm", "experimental": "The possible interaction of these Pt(II) complexes with the model protein bovine serum albumin (BSA) was studied by fluorescence and UV–vis spectroscopy. […] The effect of increasing the amount of BSA (from 0 to 50 μM) on solutions of complex 3 in mixtures of H2O/DMSO (95/5 v/v) while keeping the concentration of 3 (10 μM) constant was evaluated. Upon addition of BSA (3/BSA 1:0.25), a slight blue shift of the emission band from 510 to 495 nm is observed, and a clear switch-on of the monomer phosphorescence (^3ILCT), as a structured band slightly blue-shifted (ca. 574 nm) in relation to the complex in DMSO is observed. The intensity of this latter band reaches a maximum when the 3/BSA ratio was ca 1:1 (Figure ). […] In particular, the decrease in fluorescence emission and the switch-on of the monomer phosphorescence can be attributed to the binding of 3 to the hydrophobic pockets of the protein, which increases the rigidity of its environment and decreases the nonradiative constant.\nFor the BSA binding experiment, solutions of complex 3 with BSA in mixtures of DMSO/H2O (5/95 v/v) were prepared, keeping the concentration of 3 (10 μM) constant and increasing the amount of BSA (from 0 to 50 μM). […] The fluorescence intensities were then measured at λexc = 450 nm, and the emission fluorescence spectra were recorded in the wavelength range λ = 400–800 nm."}, "MDA-MB-231 cells": {"system": "MDA-MB-231 cells", "test": "Intracellular ROS production with H2DCFDA probe", "assay_type": "cell-based, human", "experimental": "Cyclometalated complexes of various metals, including Ir(III), Rh(III), Pt(II), and Au(III), have been reported to induce overproduction of reactive oxygen species (ROS), inducing oxidative stress leading to cell death. […] Following the protocol used for cytotoxicity assays, cells were incubated with 3 for 4 h in the dark at 37 °C (dark conditions) or incubated with 3 for 4 h in the dark at 37 °C, followed by 5 min of irradiation at 450 nm (irradiation conditions). ROS production was measured using the nonspecific ROS probe 2′,7′-dichlorodihydrofluorescein diacetate (H2DCFDA) (Figures and S36).\n11 ROS production upon incubation of MDA-MB-231 cells for 4 h at 37 °C (dark) or for 4 h at 37 °C + 5 min irradiation at 450 nm (irradiation) with complex 3 (5, 2, 1, or 0.5 μM), expressed as the mean fluorescence intensity normalized to DMSO negative controls. […]\nTriple-negative breast cancer cells MDA-MB-231 were seeded in 6-well plates at a concentration of 150 000 cells/well in 1.5 mL DMEM (Dulbecco’s modified Eagle’s medium) containing GlutaMax I supplemented with 10% FBS. […] Microscopy images were recorded in brightfield and GFP filter modes using an EVOS M5000 microscope with a 10× objective. Cell confluency was assessed on the brightfield images using EVOS M5000 microscope software, and quantification of green fluorescence was performed using Fiji software. […]"}},
  "data": [
    {"substance": "[Pt(Me2N-pbt)(3-OH-pic-κN,O)] [Complex 3]", "values": [
      {"measurement": "number of binding sites (n) on BSA", "setting": "[1]", "result": "0.9 ± 0.07"},
      {"measurement": "quenching rate kq of BSA fluorescence", "setting": "[1]; λexc 290 nm, τ0 10^–8 s", "result": "2.21 ± 0.12 × 10^12 M^–1.s^–1"},
      {"measurement": "interaction with BSA (changes of emission and UV–vis spectra)", "setting": "[2]", "result": "interacts strongly with BSA"},
      {"measurement": "ROS production (H2DCFDA green fluorescence), dark", "setting": "MDA-MB-231 cells; MDA-MB-231, 0.5, 1, 2 or 5 μM, 4 h at 37 °C in the dark", "result": "dose-dependent increase of green fluorescence"},
      {"measurement": "ROS production (H2DCFDA green fluorescence), irradiation versus dark", "setting": "MDA-MB-231 cells; MDA-MB-231, 4 h at 37 °C + 5 min irradiation at 450 nm", "result": "statistically significant increase of ROS production"}
    ]}
  ]
}
